# Data published in patent US10807968B2, “Substituted 2-(het)arylimidazolylcarboxyamides as pesticides” (Bayer CropScience Aktiengesellschaft, priority 2016, dated 2020).
# Where two headings read alike, the source gives them in different places.
# Assays:
# Myzus persicae [1] = assay: Myzus persicae - oral test; type: in vivo; settings: after 5 days; for efficacy in % (aphids killed): 20 ppm; for pest or weed control at 20 ppm: Myzus persicae, 120 h, read-out: efficacy in % (aphids killed)
# Procedure: Solvent: 100 parts by weight of acetone
# Subsequently, the plates are sealed with parafilm, which a mixed population of green peach aphids (Myzus persicae) within a second microtitre plate is able to puncture and imbibe the solution through it.
# After 5 days, the efficacy in % is determined. 100% means that all the aphids have been killed; 0% means that no aphids have been killed.
# [2] = log P determination by HPLC on reversed-phase (C18) columns, OECD Guideline 117; type: physicochemical; settings: for chromatographic logP: reversed-phase (C18) HPLC column
# Procedure: The log P values were determined in accordance with OECD Guideline 117 (EC Directive 92/69/EEC) by HPLC (high-performance liquid chromatography) using reversed-phase (RP) columns (C18), by the following methods:
# [a] The LC-MS determination in the acidic range was carried out at pH 2.7 with 0.1% aqueous formic acid and acetonitrile (contains 0.1% formic acid) as mobile phases; linear gradient from 10% acetonitrile to 95% acetonitrile.
# [b] LC-MS determination in the neutral range was carried out at pH 7.8 with 0.001 molar aqueous ammonium hydrogencarbonate solution and acetonitrile as mobile phases; linear gradient from 10% acetonitrile to 95% acetonitrile.
# Myzus persicae [3] = assay: Myzus persicae - spray test (Chinese cabbage leaf discs); type: in vivo; settings: 500 g/ha, after 6 days; for pest or weed control at 500 g/ha: Myzus persicae, foliar, 144 h, read-out: efficacy in % (aphids killed)
# Procedure: Myzus persicae—Spray Test
# Solvent: 78 parts by weight of acetone • • 1.5 parts by weight of dimethylformamide
# Emulsifier: alkylaryl polyglycol ether
# To produce a suitable preparation of active compound, 1 part by weight of active compound is dissolved using the specified parts by weight of solvent and made up with water containing an emulsi fier concentration of 1000 ppm until the desired concentration is attained. To produce further test concentrations, the formulation is diluted with emulsifier-containing water.
# Discs of Chinese cabbage leaves (Brassica pekinensis) infested by all stages of the green peach aphid (Myzus persicae) are sprayed with an active compound formulation of the desired concentration.
# After 6 days, the efficacy in % is determined. 100% means that all the aphids have been killed; 0% means that no aphids have been killed.
# [4] = pH 2.7, HPLC, acidic range pH 2.7, 0.1% aqueous formic acid/acetonitrile, read-out: logp-acidic
# [5] = pH 7.8, HPLC, neutral range pH 7.8, 0.001 molar aqueous ammonium hydrogencarbonate/acetonitrile, read-out: logp-neutral
# [6] = HPLC, acidic range pH 2.7, 0.1% aqueous formic acid/acetonitrile
# [7] = HPLC, neutral range pH 7.8, 0.001 molar aqueous ammonium hydrogencarbonate/acetonitrile
SMILES,efficacy in % (aphids killed) (Myzus persicae [1]),logp-acidic ([2]; pH 2.7),logp-neutral ([2]; pH 7.8),efficacy in % (aphids killed) (Myzus persicae [3]),pest or weed control at 20 ppm (Myzus persicae [1]),"chromatographic logP [2, 4]","chromatographic logP [2, 5]",pest or weed control at 500 g/ha (Myzus persicae [3]),"logp-acidic [2, 6]","logp-neutral [2, 7]"
CC(=O)OCc1cc(-c2ncc(C(=O)N(C)c3cccnc3)n2C)ccc1F [Example 44],90%,1.39,1.81,90%,–,–,–,–,–,–
CN(C(=O)c1cnc(-c2cccc(COC(=O)C3CC3)c2)n1C)c1cccnc1 [Example 45],90%,1.28,1.86,90%,–,–,–,–,–,–
CN(C(=O)c1cnc(-c2ccccn2)n1C)c1cccnc1 [Example 47],–,–,–,–,100%,0.74,1.16,90%,–,–
CN(C(=O)c1cnc(-c2cccc(C(F)F)c2)n1C)c1cccnc1 [Example 48],100%,1.22,1.65,100%,–,–,–,–,–,–
CN(C(=O)c1cnc(-c2cc(C(F)(F)F)cc(C(F)(F)F)c2)n1C)c1cccnc1 [Example 53],100%,2.43,2.63,90%,–,–,–,–,–,–
CN(C(=O)c1cnc(-c2cc(F)cc(C(F)(F)F)c2)n1C)c1cccnc1 [Example 54],100%,1.90,2.14,90%,–,–,–,–,–,–
CN(C(=O)c1cnc(-c2ccc(C#N)c(C(F)(F)F)c2)n1C)c1cccnc1 [Example 55],–,–,–,–,100%,1.72,1.92,90%,–,–
CN(C(=O)c1cnc(-c2cccc(CC(F)(F)F)c2)n1C)c1cccnc1 [Example 56],100%,–,1.96,90%,–,–,–,–,–,–
CN(C(=O)c1cnc(-c2cccc(C#N)c2)n1C)c1cccnc1 [Example 58],100%,–,–,100%,–,–,–,–,0.91,1.33
CN(C(=O)c1cnc(-c2ccc(Cl)c(C#N)c2)n1C)c1cccnc1 [Example 59],100%,–,–,90%,–,–,–,–,1.42,1.69
CN(C(=O)c1cnc(-c2cc(F)cc(C#N)c2)n1C)c1cccnc1 [Example 60],100%,1.21,1.52,90%,–,–,–,–,–,–
CN(C(=O)c1cnc(-c2cc(C#N)cc(C(F)(F)F)c2)n1C)c1cccnc1 [Example 61],100%,–,–,100%,–,–,–,–,1.85,1.96
COc1ccc(C#N)cc1-c1ncc(C(=O)N(C)c2cccnc2)n1C [Example 62],100%,–,–,100%,–,–,–,–,0.78,1.37
CN(C(=O)c1cnc(-c2ccc(F)c(C#N)c2)n1C)c1cccnc1 [Example 63],100%,–,–,90%,–,–,–,–,1.15,1.52
CN(C(=O)c1cnc(-c2cnc(N3CCOCC3)c(C#N)c2)n1C)c1cccnc1 [Example 66],100%,1.16,1.45,90%,–,–,–,–,–,–
CCOc1ncc(-c2ncc(C(=O)N(C)c3cccnc3)n2C)cc1C#N [Example 67],100%,1.50,1.73,100%,–,–,–,–,–,–

SMILES,efficacy in % (aphids killed) (Myzus persicae [1]),logp-acidic ([2]; pH 2.7),logp-neutral ([2]; pH 7.8),efficacy in % (aphids killed) (Myzus persicae [3]),pest or weed control at 20 ppm (Myzus persicae [1]),"chromatographic logP [2, 4]","chromatographic logP [2, 5]",pest or weed control at 500 g/ha (Myzus persicae [3]),"logp-acidic [2, 6]","logp-neutral [2, 7]"
CN(C(=O)c1cnc(-c2cc(Cl)cc(C#N)c2)n1C)c1cccnc1 [Example 69],100%,–,–,100%,–,–,–,–,1.52,1.74
CN(C(=O)c1cnc(-c2cc(-c3ccccc3)no2)n1C)c1cccnc1 [Example 71],–,–,–,–,100%,1.9,2.37,100%,–,–
CC(C)n1cc(-c2ncc(C(=O)N(C)c3cccnc3)n2C)nn1 [Example 73],100%,0.88,1.24,100%,–,–,–,–,–,–
CN(C(=O)c1cnc(-c2cn(C)nn2)n1C)c1cccnc1 [Example 74],–,–,–,–,100%,0.27,0.76,100%,–,–
CCN(C(=O)c1cnc(-c2cnc(OC)c(C#N)c2)n1C)c1cccnc1 [Example 75],–,–,–,–,100%,1.46,1.65,100%,–,–
CCOc1ncc(-c2ncc(C(=O)N(CC)c3cccnc3)n2C)cc1C#N [Example 76],100%,1.69,1.95,90%,–,–,–,–,–,–
CN(C(=O)c1cnc(-c2cccc3c2OCC3)n1C)c1cccnc1 [Example 79],100%,0.7,–,100%,–,–,–,–,–,–
CN(C(=O)c1cnc(-c2cccc3ccoc23)n1C)c1cccnc1 [Example 80],100%,0.97,1.62,100%,–,–,–,–,–,–
COc1ccccc1-c1ncc(C(=O)N(C)c2cccnc2)n1C [Example 82],100%,0.65,1.45,100%,–,–,–,–,–,–
COc1ccc(-c2ncc(C(=O)N(C)c3cccnc3)n2C)c(OC)c1 [Example 84],100%,0.8,1.54,100%,–,–,–,–,–,–
CN(C(=O)c1cnc(-c2cccc(C(F)(F)F)n2)n1C)c1cccnc1 [Example 86],100%,1.91,2.04,90%,–,–,–,–,–,–
COc1ncccc1-c1ncc(C(=O)N(C)c2cccnc2)n1C [Example 88],100%,0.53,1.16,90%,–,–,–,–,–,–
CCOc1ccc(-c2ncc(C(=O)N(C)c3cccnc3)n2C)cn1 [Example 89],100%,0.93,1.53,90%,–,–,–,–,–,–
COc1ncc(-c2ncc(C(=O)N(C)c3cccnc3)n2C)cc1Cl [Example 90],100%,1.28,1.68,90%,–,–,–,–,–,–
CSc1ncccc1-c1ncc(C(=O)N(C)c2cccnc2)n1C [Example 91],100%,0.93,1.33,90%,–,–,–,–,–,–
